Data from the supplement of paper PMC10307832.

Key:
Test in all cases: relative viability (nuclei count vs DMSO), 5 days (fraction); higher = more cells survive
Sorafenib + Alpelisib = compound: CNC(=O)c1cc(Oc2ccc(NC(=O)Nc3ccc(Cl)c(C(F)(F)F)c3)cc2)ccn1 [Sorafenib] + Cc1nc(NC(=O)N2CCC[C@H]2C(N)=O)sc1-c1ccnc(C(C)(C)C(F)(F)F)c1 [Alpelisib] (partner 2 µM)
In short: (§1)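 Lung cancer cell lines were seeded in 1536-well plates and dosed by pin tool the next day, with either a single drug or a fixed anchor-drug dose combined with five library-drug doses (not always all listed) spaced in √10 steps. Five days later, one step fixed the cells and stained their nuclei (final 0.05% Triton X-100, 1% formaldehyde, 1 ug/ml Hoechst), and nuclei were counted on 4× images. Relative viability is the nuclei count in treated wells divided by the count in vehicle wells, and each value is the median of duplicate plates.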

Sorafenib + Foretinib = compound: CNC(=O)c1cc(Oc2ccc(NC(=O)Nc3ccc(Cl)c(C(F)(F)F)c3)cc2)ccn1 [Sorafenib] + COc1cc2c(Oc3ccc(NC(=O)C4(C(=O)Nc5ccc(F)cc5)CC4)cc3F)ccnc2cc1OCCCN1CCOCC1 [Foretinib] (partner 0.25 µM)
In short: as §1

Sorafenib + Olaparib = compound: CNC(=O)c1cc(Oc2ccc(NC(=O)Nc3ccc(Cl)c(C(F)(F)F)c3)cc2)ccn1 [Sorafenib] + O=C(c1cc(Cc2n[nH]c(=O)c3ccccc23)ccc1F)N1CCN(C(=O)C2CC2)CC1 [Olaparib] (partner 8 µM)
In short: as §1

Sorafenib + OSI-027 = compound: CNC(=O)c1cc(Oc2ccc(NC(=O)Nc3ccc(Cl)c(C(F)(F)F)c3)cc2)ccn1 [Sorafenib] + COc1cccc2cc(-c3nc([C@H]4CC[C@H](C(=O)O)CC4)n4ncnc(N)c34)[nH]c12 [OSI-027] (partner 0.5 µM)
In short: as §1

Sorafenib + Navitoclax = compound: CNC(=O)c1cc(Oc2ccc(NC(=O)Nc3ccc(Cl)c(C(F)(F)F)c3)cc2)ccn1 [Sorafenib] + CC1(C)CCC(c2ccc(Cl)cc2)=C(CN2CCN(c3ccc(C(=O)NS(=O)(=O)c4ccc(N[C@H](CCN5CCOCC5)CSc5ccccc5)c(S(=O)(=O)C(F)(F)F)c4)cc3)CC2)C1 [Navitoclax] (partner 0.5 µM)
In short: as §1

Cell Line | relative viability (Sorafenib + Alpelisib; first compound 0.08 µM) | relative viability (Sorafenib + Alpelisib; first compound 0.253 µM) | relative viability (Sorafenib + Alpelisib; first compound 2.53 µM) | relative viability (Sorafenib + Foretinib; first compound 0.08 µM) | relative viability (Sorafenib + Foretinib; first compound 2.53 µM) | relative viability (Sorafenib + Foretinib; first compound 8 µM) | relative viability (Sorafenib + Olaparib; first compound 0.08 µM) | relative viability (Sorafenib + Olaparib; first compound 0.253 µM) | relative viability (Sorafenib + Olaparib; first compound 2.53 µM) | relative viability (Sorafenib + Olaparib; first compound 8 µM) | relative viability (Sorafenib + OSI-027; first compound 0.253 µM) | relative viability (Sorafenib + OSI-027; first compound 2.53 µM) | relative viability (Sorafenib + OSI-027; first compound 8 µM) | relative viability (Sorafenib + Navitoclax; first compound 0.08 µM) | relative viability (Sorafenib + Navitoclax; first compound 0.253 µM) | relative viability (Sorafenib + Navitoclax; first compound 2.53 µM) | relative viability (Sorafenib + Navitoclax; first compound 8 µM) | relative viability (Sorafenib + Alpelisib; first compound 8 µM) | relative viability (Sorafenib + Foretinib; first compound 0.253 µM) | relative viability (Sorafenib + OSI-027; first compound 0.08 µM)
201T | 1 | 1.05 | 1.13 | 1.23 | 1.11 | 0.884 | 0.812 | 0.88 | 0.877 | 0.843 | 0.706 | 0.804 | 0.671 | 1.19 | 1.24 | 1.27 | 1.18 |  |  | 
A-427 | 1.08 | 1.07 | 1.06 | 1.24 | 0.94 | 0.754 | 0.71 | 0.771 | 0.733 | 0.635 | 0.511 | 0.432 | 0.219 | 0.946 | 0.917 | 0.985 | 0.563 | 0.925 | 0.989 | 0.522
ABC-1 | 1.01 | 0.945 | 1.11 | 1.06 | 1.38 | 0.392 |  | 0.565 | 0.693 | 0.4 | 0.49 | 0.654 | 0.37 |  |  |  |  | 1.03 | 1.11 | 0.575
BEN | 1.1 | 0.889 | 0.906 | 0.755 | 0.811 | 0.526 | 1.02 | 1.1 | 1.01 | 0.791 | 0.326 | 0.338 | 0.27 | 0.09 | 0.0558 | 0.0776 | 0.0641 | 0.798 | 0.518 | 0.318
CAL-12T | 1.18 | 1.09 | 0.971 | 1.39 | 1.03 | 0.868 | 0.81 | 0.616 | 0.639 | 0.602 | 0.492 | 0.565 | 0.299 | 1.32 | 1.19 | 1.06 | 0.64 | 0.705 | 1.05 | 0.78
COR-L23 | 0.83 | 0.758 | 0.79 | 1.13 | 0.937 | 0.765 | 0.336 | 0.372 | 0.346 | 0.233 | 0.725 | 0.754 |  | 1.03 | 0.898 | 1.1 | 0.485 | 0.637 | 0.982 | 0.874
COR-L 105 | 1.09 | 0.95 | 0.966 | 1.32 | 1.18 | 1.03 | 0.697 | 0.72 | 0.78 | 0.718 | 0.735 | 1.05 | 0.677 | 0.792 | 0.821 | 0.89 | 0.865 | 0.793 | 0.982 | 0.816
ChaGo-K-1 |  |  |  | 0.961 | 0.9 |  | 0.41 | 0.388 | 0.441 | 0.361 | 0.397 | 0.683 | 0.46 | 1.23 | 0.866 | 1.11 | 0.576 |  | 0.965 | 0.583
EKVX | 1.09 | 0.886 | 0.872 | 1.09 | 0.672 | 0.606 | 0.91 | 0.76 | 0.796 | 0.682 | 0.74 | 0.701 | 0.649 | 1.13 | 0.882 | 0.884 | 0.963 | 0.828 | 0.748 | 0.712
EMC-BAC-2 |  | 0.73 | 0.707 | 1.02 | 1 | 0.658 | 0.473 | 0.387 | 0.45 | 0.461 | 0.358 | 0.391 | 0.358 | 1.22 | 1.06 | 1.18 | 1.11 | 0.702 | 0.819 | 0.341
EPLC-272H | 0.928 | 0.986 | 1.15 | 0.702 | 0.788 | 0.508 | 1.11 | 0.838 | 1.02 | 0.283 | 0.296 | 0.273 | 0.269 | 1.22 | 1.14 | 1.04 | 0.96 | 0.898 | 0.716 | 0.314
H3255 | 0.851 | 0.639 | 0.802 | 1.06 | 0.829 | 0.567 | 0.574 | 0.532 | 0.536 | 0.438 | 0.566 | 0.619 | 0.349 | 0.652 | 0.46 | 0.616 | 0.502 | 0.552 |  | 0.634
HARA | 0.991 | 0.773 | 0.856 | 0.967 | 0.898 | 0.889 | 0.868 | 0.794 | 0.391 | 0.478 | 0.5 | 0.619 | 0.257 | 1.17 | 1.08 |  | 1.13 | 0.797 | 0.916 | 0.606
HCC-15 | 0.86 | 0.932 | 0.955 | 0.999 | 1 | 0.869 | 0.701 | 0.641 | 0.575 | 0.442 | 0.558 | 0.712 | 0.386 | 0.748 | 0.713 | 0.804 | 0.522 | 0.575 | 0.933 | 0.631
HCC-44 | 0.833 | 0.785 | 0.793 |  |  |  | 0.936 | 0.876 | 0.92 | 0.953 | 0.431 | 0.741 | 0.395 |  | 0.92 | 1.03 | 0.909 | 0.649 |  | 0.552
HCC-78 | 0.373 | 0.297 | 0.367 | 0.632 | 0.801 | 0.905 | 0.891 | 0.953 | 0.909 | 0.819 | 0.304 | 0.431 | 0.384 | 0.814 | 0.731 | 0.739 | 0.84 | 0.423 | 0.537 | 0.39
